Assay results reported in publication PMC8843100, “Development of newly synthesised quinazolinone-based CDK2 inhibitors with potent efficacy against melanoma” (Journal of Enzyme Inhibition and Medicinal Chemistry, 2022).

What was measured:
[1] = system: glioblastoma cell line SNB-75; assay: Detection of IC50, MTT assay; format: cell-based; settings: Homo sapiens, read-out: IC50 (µM)±SD, 50% inhibition of cell viability, Glioblastoma SNB-75, 48 h
Description: 2. Detection of IC50 against MDA-MB-435, SNB-75 cell lines and normal cell line WI -38.
Antiproliferative activities of 5c in melanoma cell line MDA-MB-435, glioblastoma cell line SNB-75 and normal cell line WI -38 and that of 8a in melanoma cell line MDA-MB-435 and normal cell line WI-38 were measured spectrophotometrically using in vitro MTT based toxicology assay kit (catalog no. M -5655, M-8910) (Sigma Aldrich), according to the manufacturer’s protocol. The three examined cell lin es were obtained from American Type Culture Collection (ATCC). Briefly, cells were platted (cells density 1.2 – 1.8 × 10,000 cells/well) in a volume of 100 µl complete growth medium + 100 μl of the tested compound per well in a 96-well […]
salt solution without phenol red and serum.

[2] = system: melanoma MDA-MB-435 cells; assay: Cell cycle analysis, PI flow cytometry; format: cell-based, human; settings: MDA-MB-435, after 24 h at IC50 concentration
Description: 10% of the culture medium volume. Cultures were returned to incubator for 2–4 h. After the incubation period, cultures were removed from incubator and the resulting formazan crystals were dissolved by adding an amount of MTT solubilization solution [M-8910] equal to the original culture medium volume. Dissolution is enhanced by gentle mixing in a gyratory shaker. Then the absorbance is measured spectrophotometrically at a wavelength of 450 nm. The absorbance of multiwell plates was measured at 690 nm and subtracted from the 450 nm measurement. IC50 values (concentration of sample causing 50% loss of cell proliferation of the vehicle control) were calculated using non-linear regression curve fitting of the dose response plots on GraphPad Prism 7.0 software. Data presented are the results of at least three independent experiments. The results of these studies are presented as mean IC50 (μM) ± standard deviation (SD).
(§1) Melanoma MDA -MB-435 and glioblastoma SNB-75 cells were treated with the quinazolinone 5c for 24 h (at its IC50 concentration), and then cells were washed twice with ice - cold phosphate buffered saline (PBS). Consequently, the treated cells were collected by centrifugation, fixed in ice -cold 70% (v/v) ethanol, washed with PBS, re -suspended with 100 μg/mL RNase, stained with 40 μg/mL propidium iodide (PI), and analyzed by flow cytometry using FACS Calibur (Becton Dickinson, BD, Franklin Lakes, NJ, USA). The cell cycle distributions were calculated using Cell Quest software 5.1 (Becton Dickinson). […]

[3] = system: glioblastoma SNB-75 cells; assay: Cell cycle analysis, PI flow cytometry; format: cell-based, human; settings: SNB-75, after 24 h at IC50 concentration
Description: as §1

[4] = system: glioblastoma SNB-75 cells; assay: Apoptosis determination, Annexin V-FITC/PI; format: cell-based, human; settings: SNB-75, 24 h at IC50 concentration
Description: (§2) The apoptotic activity of quinazolinone 5c in melanoma MDA-MB-435 and glioblastoma SNB-75 cell lines was further studied using Annexin V-FITC assay. […]
(§3) 4. Apoptosis determination
(§4) Annexin V fluorescein isothiocyanate (FITC)/PI apoptosis detection kit (BD Biosciences) was used according to the manufacturer’s instructions to measure the apoptotic activity of compound 5c. Melanoma MDA -MB-435 and glioblastoma SNB -75 cells were cultured to a monolayer then treated with the quinazolinone 5c at its IC50 concentration. The cells then were collected by trypsinisation and 0.5×10^6 cells were washed twice with PBS and stained with 5 µL Annexin V-FITC and 5 µL PI in 1Xbinding buffe r for 15 min. at room temperature in the dark.
(§5) Analyses were performed using FACS Calibur flow cytometer (BD Biosciences, San Jose, CA).

[5] = system: melanoma MDA-MB-435 cells; assay: Apoptosis determination, Annexin V-FITC/PI; format: cell-based, human; settings: MDA-MB-435, 24 h at IC50 concentration
Description: as §2, §3, §4, §5

SMILES: O=c1c2ccccc2nc(COc2ccccc2)n1NS(=O)(=O)c1ccc(Cl)cc1 [Compound 5c, 4-chloro-N-(4-oxo-2-(phenoxymethyl)quinazolin-3(4H)-yl)benzenesulfonamide]
- IC50 [1]: 8.62 ± 0.13 µM
- %G0-G1 [2]: 55.29%
- %G2/M [2]: 3.74%
- %Pre-G1 [2]: 28.65%
- %S [2]: 40.97%
- Comment (cell cycle) [2]: Pre G1 apoptosis and cell growth arrest at S
- %G0-G1 [3]: 39.53%
- %G2/M [3]: 31.78%
- %Pre-G1 [3]: 44.22%
- %S [3]: 28.69%
- Comment (cell cycle) [3]: Pre G1 apoptosis and cell growth arrest at G2/M
- % Necrosis [4]: 8.61%
- %Apoptosis Early [4]: 2.65%
- %Apoptosis Late [4]: 32.96%
- %Apoptosis Total [4]: 44.22%
- % Necrosis [5]: 13.47%
- %Apoptosis Early [5]: 4.53%
- %Apoptosis Late [5]: 10.65%
- %Apoptosis Total [5]: 28.65%
